The values that follow come from US20150313913A1, “POSITIVE ALLOSTERIC MODULATORS OF THE GABA-A RECEPTOR IN THE TREATMENT OF AUTISM” (UNIVERSITY OF WASHINGTON THROUGH ITS CENTER FOR …, priority 2013, published 2015).

A word on the half-life: it is the time in which the quantity being followed falls by half.

Entries after “also recorded” stand apart in the source; their conditions may differ. Where two headings read alike, the source gives them in different places.

For data set [1] the following is noted: cited from earlier work.
Data set [2] relates to BTBR mice. The data set can be described thus: Open field test. Format: in vivo. The following applies: clobazam 0.05 mg/kg. Here is the method: (§1) Open field test was performed as previously described (Han et al., 2012). 50×50 cm square open field arena with non-transparent white Plexiglas was used in this study. During the 10 min of trial, total distance moved, circling behavior (a complete 360-degree turn of nose angle with respect to the body center) and time in center (20×20 cm imaginary square) were measured by the video-tracking software (EthoVision XT 8.5, Noldus Technology).

For data set [3], the system named is mouse genetic models of human Dravet syndrome and idiopathic autism. The data set can be described thus: Summary: low-dose treatment of mouse models of autism. Format: in vivo, mice. The following applies: low doses that do not induce sedative or anxiolytic effects. The source says:
The present disclosure describes methods effective in the rescue or amelioration of autism-like behavior, cognitive deficit, and context-dependent spatial memory.
In particular embodiments, these methods comprise the administration of low doses of a benzodiazepine to a human or other mammalian subject in order to rescue autism-like behavior, cognitive deficit, and context-dependent spatial memory. […] At such low doses, the administration of benzodiazepines, such as CLZ, to mammalian subjects will result in improvement of autism-like behavior, cognitive deficit, and context-dependent spatial learning and memory with much lower levels of sedation compared to mammalian subjects who receive typical higher doses of CLZ or other benzodiazepines that are used for treatment of anxiety, insomnia, or seizure.
The present disclosure is also directed to methods of rescuing or ameliorating indicia of Autism Spectrum disorders, autism-like behavior, cognitive deficit, and context-dependent spatial learning and memory in Dravet syndrome or idiopathic autism with α-2,3-specific GABA-A receptor positive allosteric modifiers. Such α-2,3-subunit selective GABA-A receptor positive allosteric modifiers include L838,417.
Therapeutic approaches to treat autistic traits in animal studies or in clinical trials have primarily focused on reducing excitatory neurotransmission in glutamatergic synapses to rebalance E/I ratio in autistic brain (Michalon et al., 2012; Yang et al., 2012). However, autistic-like behaviors in ASD mouse models are only partially reversed by drugs that inhibit excitatory neurotransmission, and these drugs also have unwanted side effects on wild-type mice (Henderson et al., 2012; Michalon et al., 2012; Yang et al., 2012). To overcome these drawbacks, the inventors focused on the opposing side, the GABAergic inhibitory transmission in autistic brain. Their results highlight the potential for therapy of autistic-like behaviors and cognitive deficit in ASD by low-dose treatment with subunit-selective benzodiazepines and other positive allosteric modulators of GABA-A receptors. […] It is possible that the biphasic dose-response relationship of the positive allosteric modulators reflects their actions on receptors containing α2,3 subunits at low doses and on receptors containing α1 subunits at higher doses.

The test system of data set [4] is GABA-A receptor. The settings on record: cited from earlier work; for Effect at GABA-A receptor: Table 1, exemplary benzodiazepines.
Data set [5] has as its system BTBR mice. Kind of data set: Three-chamber social interaction test. Here is the method: In the three-chamber test, a test mouse is placed in the center chamber, and the preference of the test mouse for interaction with an inanimate object (a small empty cage) in the left chamber vs. a stranger mouse in an identical cage in the right chamber using a digital camera and quantitative video-tracking analysis.
The test was performed as described previously (Han et al., 2012) with minor modifications. The threechamber apparatus is a non-transparent Plexiglas box (30×60 cm) with two transparent partitions that make left, center, and right chambers (30×20 cm). In the first 10-min session, a test mouse was placed in the center of the empty three-chamber unit to habituate the test mouse. The mouse was allowed to freely explore each chamber. In the second 10-min session, an age- and gender-matched same strain mouse that had never been exposed to the test mouse, was placed in one of the two wire cages. The empty wire cage as an inanimate object cue was placed on the other side. Then, the test mouse was placed again in the center, and allowed to freely explore the chamber for 10 min. Time spent in each chamber, and time spent within a 5 cm radius proximal to each wire cage, as a close interaction were measured by the videotracking software (EthoVision XT 8.5, Noldus Technology). All data shown are means±s.e.m. and analyzed using two-way ANOVA with Bonferroni's post hoc analysis and one-way ANOVA with Tukey's post hoc analysis.
L-838,417, and DMCM (Sigma), dissolved in 100% DMSO (sterile, Sigma) was diluted in PBS (the final concentration of DMSO was ranged from 0.005% to 0.1%). Drugs were administered by an intraperitoneal injection in a volume of […] 30 min before the behavioral tests.

Data set [6] deals with C57BL/6J mice. Kind of data set: Three-chamber social interaction test. Format: in vivo. The source says: The mouse was allowed to freely explore each chamber.
For data set [7] the following is noted: in vivo; cited from earlier work.
For data set [8], the system named is C57BL/6J mice. The data set can be described thus: Open field test. Format: in vivo. The settings on record: 0.2 mg/kg. The protocol: as §1
In data set [9] the test system is C57BL/6J mice. The data set can be described thus: Elevated plus maze test. In kind it is in vivo. The settings on record: 0.2 mg/kg. Here is the method:
The test was performed as previously described (Han et al., 2012). The maze used in this study has two closed arms (5.1×30 cm) surrounded by 20-cm high non-transparent walls and two open arms (5.1×30 cm). During the 10 min of trial, times spent in closed, center, and open arms, and total distance traveled during the trial were measured by the video-tracking software (EthoVision XT 8.5, Noldus Technology).

Setting [10] is: Table 4, exemplary non-BDZ GABA-A enhancers.

`CN1C(=O)CC(=O)N(c2ccccc2)c2cc(Cl)ccc21` [Clobazam]: in data set [1] (Table 1, values marked *), the “Dose in humans for anti-anxiety, anti-convulsive, or sedative effects: equivalent dose to 10 mg diazepam” value (shortened to “Dose in humans … to 10 mg diazepam”) was 20 mg. In addition, in data set [2], the “anxiolytic effect (time spent in center)” value is reported as “without sedative (FIG. 41C) or anxiolytic effects” and the “sedative effect (total distance moved)” value is on record as “without sedative”. Moreover, the “autistic-like behaviors and cognitive deficit in BTBR mice (summary)” value in data set [3] is listed as “improved”. For the same compound, the “Effect at GABA-A receptor” value in data set [4] was “Agonist”. Also, the social interaction deficit entry in data set [5] (0.05 mg/kg (low dose) 30 min before test) was “ameliorated social interaction deficits”. Besides, in [5] (FIG. 9), the “time in the chamber with the stranger mouse” value is given as “increased” and the “time of interaction with the stranger mouse” value was “increased”. Besides, in [5] (single i.p. injection 30 min before test, low/increasing doses), the “social interaction (time with stranger mouse, close interaction), dose series” value is “increases”. The “social interaction of control mice” value in data set [6] (clobazam, FIG. 9) is given as “no effect”.
As for `Cc1nnc2n1-c1ccc(Cl)cc1C(c1ccccc1Cl)=NC2` [Triazolam], the “Dose in humans … to 10 mg diazepam” value in [1] (Table 1, values marked *) was 0.25 mg. In data set [4], the “Effect at GABA-A receptor” value is “Agonist”. The half-life in data set [7] was 2 to 3 h.
As for `CC(C)(C)OC(=O)c1ncn2c1[C@@H]1CCCN1C(=O)c1c(Br)cccc1-2` [Bretazenil], the “Dose in humans … to 10 mg diazepam” value in [1] (Table 1, values marked *) was 0.5 mg. Moreover, in [4], the “Effect at GABA-A receptor” value is reported as “Partial Agonist High potency”.
With `O=C1CN=C(c2ccccc2Cl)c2cc(Cl)ccc2N1` [Delorazepam], the “Dose in humans … to 10 mg diazepam” value in [1] (Table 1, values marked *) is 1 mg. Also, the “Effect at GABA-A receptor” value in data set [4] is given as “Agonist”.
Consider `O=C1Nc2ccc(Cl)cc2C(c2ccccc2Cl)=NC1O` (centres unmarked) [Lorazepam], for which the “Dose in humans … to 10 mg diazepam” value in data set [1] (Table 1, values marked *) was 1 mg. In addition, the “Effect at GABA-A receptor” value in data set [4] was “Agonist High- potency”.
Take `CP(C)(=O)CN1C(=O)CN=C(c2ccccc2)c2cc(Cl)ccc21` [Fosazepam]: the “Dose in humans … to 10 mg diazepam” value in [1] (Table 1, values marked *) was 60 mg. For the same compound, the “Effect at GABA-A receptor” value in [4] is “Agonist Low potency”.
With `CN1C(=O)CN=C(C2=CCCCC2)c2cc(Cl)ccc21` [Tetrazepam], the “Dose in humans for anti-anxiety, anti-convulsive, or sedative effects, per day” value in [1] (Table 1, typical daily dose) was 50 to 300 mg/day. Further, the “Dose in humans … to 10 mg diazepam” value in data set [1] (Table 1, values marked *) is 100 mg. In [4], the “Effect at GABA-A receptor” value is given as “Agonist”.
Turning to `CN1C(=O)C(O)N=C(c2ccccc2Cl)c2cc(Cl)ccc21` (centres unmarked) [Lormetazepam], in data set [1] (Table 1, values marked *), the “Dose in humans … to 10 mg diazepam” value is 1.5 mg. Further, the “Effect at GABA-A receptor” value in data set [4] is “Agonist Short- acting”.
On to `Cc1ncc2n1-c1ccc(Cl)cc1C(c1ccccc1F)=NC2` [Midazolam], for which the “Dose in humans … to 10 mg diazepam” value in [1] (Table 1, values marked *) was 7.5 mg. For the same compound, in data set [4], the “Effect at GABA-A receptor” value is on record as “Agonist Short- acting”.
For `O=C1CN=C(c2ccccc2)c2cc(Cl)ccc2N1` [Nordazepam], the “Dose in humans … to 10 mg diazepam” value in data set [1] (Table 1, values marked *) was 10 mg. The “Effect at GABA-A receptor” value in data set [4] is reported as “Partial agonist”.
Regarding `CN1CCN(C(=O)O[C@H]2c3nccnc3C(=O)N2c2ccc(Cl)cn2)CC1` [Eszopiclone], the “Dose in humans … to 10 mg diazepam” value in [1] (Table 4, values marked *) is 3 mg. Also, the “Effect at GABA receptor” value in data set [4] (setting [10]) was “Agonist”.
Turning to `Clc1ccc2c(c1)C(c1ccccc1)=NCc1nncn1-2` [Estazolam], the “Dose in humans … to 10 mg diazepam” value in data set [1] (Table 1, values marked *) was 2 mg. Moreover, the “Effect at GABA-A receptor” value in data set [4] was “Agonist”.
Consider `Cc1nnc2n1-c1ccc(Cl)cc1C(c1ccccc1)=NC2` [Alprazolam], for which the “Dose in humans for anti-anxiety, anti-convulsive, or sedative effects (dose range, typical or average dose)” value in [1] (Table 1, values not marked *) is listed as “dose range of 0.5 to 3.0 mg”. In data set [4], the “Effect at GABA-A receptor” value is given as “Full agonist”.
Regarding `CCc1c(C(=O)OC)ncc2[nH]c3cc(OC)c(OC)cc3c12` [DMCM], in data set [8], the “general locomotor behavior (distance moved)” value was “not altered” and the “time spent in center” value is “unaltered”. Moreover, in [9], the “anxiety levels (time in the open arms)” value was “not altered” and the “number of entries in the open arms” value was “unchanged”. In addition, the “normal social interaction behavior” value in [6] (0.2 mg/kg single injection 30 min prior) is recorded as “impaired; also recorded: substantially reduced”.
In the case of `O=C1CN=C(c2ccccc2)c2cc(Cl)ccc2N1CC(F)(F)F` [Halazepam], in data set [1] (Table 1, values marked *), the “Dose in humans … to 10 mg diazepam” value is 20 to 40 mg. Moreover, the “Effect at GABA-A receptor” value in data set [4] is reported as “Agonist”.
For the compound `CC1=CC(=O)N2CC(=O)N(C)c3ccc(Cl)cc3C2(c2ccccc2)O1` (centres unmarked) [Ketazolam], in data set [1] (Table 1, values marked *), the “Dose in humans … to 10 mg diazepam” value was 15 to 30 mg. Besides, the “Effect at GABA-A receptor” value in data set [4] is “Agonist”.
With `CN1CCN(C(=O)OC2c3nccnc3C(=O)N2c2ccc(Cl)cn2)CC1` (centres unmarked) [Zopiclone], the “Dose in humans … to 10 mg diazepam” value in data set [1] (Table 4, values marked *) was 15 mg. Besides, the “Effect at GABA receptor” value in data set [4] (setting [10]) is “Full agonist”.
Turning to `CCN(C(C)=O)c1cccc(-c2ccnc3c(C#N)cnn23)c1` [Zaleplon], the “Dose in humans for anti-anxiety, anti-convulsive, or sedative effects (marked *)” value in data set [1] (Table 2) was 20 mg. Also, the “Effect at GABA receptor” value in [4] (Table 2, exemplary SS-PAMs) was “Full agonist α1 selective Acts on α2,3 at higher doses Ultra short- acting”.
As for `C#CCN1C(=O)CN=C(c2ccccc2)c2cc(Cl)ccc21` [Pinazepam], the “Dose in humans … to 10 mg diazepam” value in data set [1] (Table 1, values marked *) was 20 mg. Besides, the “Effect at GABA-A receptor” value in [4] is given as “Agonist”.
On to `O=C1CN=C(c2ccccc2F)c2cc(Cl)ccc2N1CC1CC1` [Flutoprazepam], for which, in data set [1] (Table 1, values marked *), the “Dose in humans … to 10 mg diazepam” value was 2 to 3 mg. The “Effect at GABA-A receptor” value in data set [4] is given as “Agonist”.
